In ChEMBL document CHEMBL1129926, “D4 dopamine receptor-selective compounds from the Chinese plant Phoebe chekiangensis” (Bioorg Med Chem Lett, 1997) one finds IC50 and Ki data, which are given here for six molecules.

Usually IC50 stands for the midpoint of a concentration-inhibition curve. Lower therefore signals greater potency. The term Ki denotes a measure of affinity in units of concentration, obtained from inhibition or displacement.

The structures appear in SMILES notation.

The target of one experiment is T1, D(4) dopamine receptor (Homo sapiens, UniProt P21917).
T1 sequence (P21917 whole entry): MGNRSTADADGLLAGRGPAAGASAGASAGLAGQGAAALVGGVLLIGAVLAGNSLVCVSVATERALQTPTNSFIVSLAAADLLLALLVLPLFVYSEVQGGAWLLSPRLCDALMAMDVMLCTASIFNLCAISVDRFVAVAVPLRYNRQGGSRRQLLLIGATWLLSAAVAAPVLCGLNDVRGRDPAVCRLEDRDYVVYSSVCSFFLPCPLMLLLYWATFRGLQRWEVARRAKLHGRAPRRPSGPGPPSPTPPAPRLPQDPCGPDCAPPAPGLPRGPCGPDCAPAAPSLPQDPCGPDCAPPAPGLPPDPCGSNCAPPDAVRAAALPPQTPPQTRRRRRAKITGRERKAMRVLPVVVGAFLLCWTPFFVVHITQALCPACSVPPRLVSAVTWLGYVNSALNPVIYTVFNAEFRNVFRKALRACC
Kind of experiment: Inhibitory concentration against binding of [3H]spiperone to human D4 dopaminergic receptor.
The molecule `Oc1ccc2c(c1)CCN2` showed an IC50 of 39200 nM.
The same measure, in the same setting: under `OC[C@H]1O[C@H](Oc2ccc(CC3NCCc4cc(O)c(O)cc43)cc2)[C@H](O)[C@H](O)[C@H]1O` (some centres undefined) stands 47500 nM.

The target in the next experiment is D(2) dopamine receptor (Homo sapiens, UniProt P14416). The experiment can be described thus: Inhibitory concentration against binding of [3H]spiperone to human D2 dopaminergic receptor.
D(2) dopamine receptor, sequence (P14416 whole entry): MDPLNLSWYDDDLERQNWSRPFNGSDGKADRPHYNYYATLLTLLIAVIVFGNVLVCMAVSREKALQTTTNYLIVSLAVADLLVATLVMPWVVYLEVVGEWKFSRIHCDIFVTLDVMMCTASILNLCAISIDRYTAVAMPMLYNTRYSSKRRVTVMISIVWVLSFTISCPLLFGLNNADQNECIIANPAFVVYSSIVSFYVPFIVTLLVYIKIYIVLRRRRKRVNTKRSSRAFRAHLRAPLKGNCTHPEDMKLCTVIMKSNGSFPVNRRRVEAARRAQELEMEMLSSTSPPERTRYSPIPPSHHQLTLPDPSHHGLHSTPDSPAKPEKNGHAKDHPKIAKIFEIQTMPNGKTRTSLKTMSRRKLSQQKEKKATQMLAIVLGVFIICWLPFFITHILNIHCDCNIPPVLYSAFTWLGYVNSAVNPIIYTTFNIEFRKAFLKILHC
In turn, `Oc1ccc2c(c1)CCN2` displayed an IC50 of 1030 nM.

A further experiment deals with T1, D(4) dopamine receptor. Kind of experiment: Potency was measured by the displacement of [3H]-spiperone binding to human D4 dopaminergic receptor. (In general: Loss of bound radioactivity is the signal in a displacement assay; it reports binding, not function.)
As to `Oc1ccc(CC2NCCc3cc(O)c(O)cc32)cc1O` (centres undefined), the affinity corresponds to a Ki of 2500 nM.
On the same count and under the same terms, under `Oc1ccc2c(c1)CCN2` stands 500 nM.
The molecule `CN1CCc2cc(O)c(O)cc2C1Cc1ccc(O)c(O)c1` (centres undefined) came in with a Ki of 350 nM.
The same measure, in the same setting: with `OC[C@H]1O[C@H](Oc2ccc(CC3NCCc4cc(O)c(O)cc43)cc2)[C@H](O)[C@H](O)[C@H]1O` (some centres undefined) the figure was 1200 nM; with `CC1NCCc2cc(O)c(O)cc21` (centres undefined), 6400 nM; with `Oc1ccc(CC2NCCc3cc(O)c(O)cc32)cc1` (centres undefined) [HIGENAMINE], 3100 nM.
